# Measurements taken from the supplement of paper PMC10307832.
# What was measured:
# Test in all cases: relative viability (nuclei count vs DMSO), 5 days (fraction); higher = more cells survive
# [1] = tested on: NCI-H1944
# In short: (§1)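 Relative viability was taken as the ratio of nuclei in treated wells to nuclei in vehicle wells. Lung cancer cell lines in 1536-well plates received compounds by pin tool one day after seeding, either one drug alone or a fixed anchor-drug dose plus five library-drug doses (not always all listed) in √10 steps. Nuclei were counted on 4× images after 5 days of treatment, and values are medians of duplicate plates.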
# [2] = tested on: LCLC-97TM1
# In short: as §1
# [3] = tested on: NCI-H1793
# In short: as §1
# [4] = tested on: UMC-11
# In short: as §1
# [5] = tested on: HCC-366
# In short: as §1
# [6] = tested on: EPLC-272H
# In short: as §1
# [7] = tested on: COR-L 105
# In short: as §1
# [8] = tested on: NCI-H1915
# In short: as §1
# [9] = tested on: NCI-H1755
# In short: as §1
# [10] = tested on: LC-2-ad
# In short: as §1
# [11] = tested on: NCI-H2085
# In short: as §1
# [12] = tested on: NCI-H460
# In short: as §1
# [13] = tested on: HCC-78
# In short: as §1
# [14] = tested on: HOP-62
# In short: as §1
# [15] = tested on: NCI-H2170
# In short: as §1
# [16] = tested on: NCI-H358
# In short: as §1
# [17] = tested on: LXF-289
# In short: as §1
# [18] = tested on: LU99A
# In short: as §1
# [19] = tested on: SK-LU-1
# In short: as §1
# [20] = tested on: A-427
# In short: as §1
# [21] = tested on: NCI-H1792
# In short: as §1
# [22] = tested on: NCI-H1975
# In short: as §1
compound,measurement,setting,value
C=C1C(=O)O[C@@H](CCCCCCCC)[C@@H]1C(=O)O [C-75] + Cc1nc(NC(=O)N2CCC[C@H]2C(N)=O)sc1-c1ccnc(C(C)(C)C(F)(F)F)c1 [Alpelisib] (partner 2 µM),relative viability,[1]; first compound 0.08 µM,0.824
same,relative viability,[1]; first compound 0.253 µM,0.655
same,relative viability,[1]; first compound 0.8 µM,0.916
same,relative viability,[1]; first compound 8 µM,0.818
same,relative viability,[2]; first compound 0.08 µM,0.286
same,relative viability,[2]; first compound 0.253 µM,0.376
same,relative viability,[2]; first compound 0.8 µM,0.225
same,relative viability,[2]; first compound 2.53 µM,0.251
same,relative viability,[2]; first compound 8 µM,0.271
same,relative viability,[3]; first compound 0.08 µM,0.72
same,relative viability,[3]; first compound 0.253 µM,0.723
same,relative viability,[3]; first compound 0.8 µM,0.585
same,relative viability,[3]; first compound 2.53 µM,0.708
same,relative viability,[3]; first compound 8 µM,0.816
same,relative viability,[4]; first compound 0.08 µM,0.927
same,relative viability,[4]; first compound 0.253 µM,1.15
same,relative viability,[4]; first compound 0.8 µM,0.97
same,relative viability,[4]; first compound 2.53 µM,0.909
same,relative viability,[4]; first compound 8 µM,0.786
same,relative viability,[5]; first compound 0.08 µM,0.502
same,relative viability,[5]; first compound 0.253 µM,0.48
same,relative viability,[5]; first compound 0.8 µM,0.381
same,relative viability,[5]; first compound 8 µM,0.404
same,relative viability,[6]; first compound 0.08 µM,0.95
same,relative viability,[6]; first compound 0.253 µM,1.03
same,relative viability,[6]; first compound 0.8 µM,0.873
same,relative viability,[6]; first compound 2.53 µM,0.732
same,relative viability,[6]; first compound 8 µM,0.862
same,relative viability,[7]; first compound 0.08 µM,1.15
same,relative viability,[7]; first compound 0.253 µM,1.1
same,relative viability,[7]; first compound 0.8 µM,1.06
same,relative viability,[7]; first compound 2.53 µM,0.895
same,relative viability,[7]; first compound 8 µM,0.668
same,relative viability,[8]; first compound 0.08 µM,1.06
same,relative viability,[8]; first compound 0.253 µM,1.09
same,relative viability,[8]; first compound 0.8 µM,1.07
same,relative viability,[8]; first compound 2.53 µM,0.51
same,relative viability,[8]; first compound 8 µM,1.01
same,relative viability,[9]; first compound 0.08 µM,0.938
same,relative viability,[9]; first compound 0.253 µM,0.823
same,relative viability,[9]; first compound 0.8 µM,0.913
same,relative viability,[9]; first compound 2.53 µM,0.739
same,relative viability,[9]; first compound 8 µM,0.919
same,relative viability,[10]; first compound 0.08 µM,0.838
same,relative viability,[10]; first compound 0.253 µM,0.822
same,relative viability,[10]; first compound 0.8 µM,0.828
same,relative viability,[10]; first compound 8 µM,0.891
same,relative viability,[11]; first compound 0.08 µM,0.974
same,relative viability,[11]; first compound 0.253 µM,1.1
same,relative viability,[11]; first compound 0.8 µM,0.957
same,relative viability,[11]; first compound 2.53 µM,0.89
same,relative viability,[11]; first compound 8 µM,0.898
same,relative viability,[12]; first compound 0.08 µM,0.517
same,relative viability,[12]; first compound 0.253 µM,0.485
same,relative viability,[12]; first compound 0.8 µM,0.475
same,relative viability,[12]; first compound 8 µM,0.374
same,relative viability,[13]; first compound 0.08 µM,0.297
same,relative viability,[13]; first compound 0.253 µM,0.318
same,relative viability,[13]; first compound 0.8 µM,0.354
same,relative viability,[13]; first compound 2.53 µM,0.336
same,relative viability,[13]; first compound 8 µM,0.408
same,relative viability,[14]; first compound 0.08 µM,0.9
same,relative viability,[14]; first compound 0.253 µM,1.11
same,relative viability,[14]; first compound 0.8 µM,0.95
same,relative viability,[14]; first compound 2.53 µM,0.926
same,relative viability,[14]; first compound 8 µM,0.765
same,relative viability,[15]; first compound 0.08 µM,0.796
same,relative viability,[15]; first compound 0.253 µM,0.779
same,relative viability,[15]; first compound 0.8 µM,0.776
same,relative viability,[15]; first compound 2.53 µM,0.741
same,relative viability,[15]; first compound 8 µM,0.713
same,relative viability,[16]; first compound 0.08 µM,0.851
same,relative viability,[16]; first compound 0.253 µM,0.735
same,relative viability,[16]; first compound 0.8 µM,0.789
same,relative viability,[16]; first compound 2.53 µM,0.859
same,relative viability,[16]; first compound 8 µM,0.808
same,relative viability,[17]; first compound 0.08 µM,1.01
same,relative viability,[17]; first compound 0.253 µM,0.979
same,relative viability,[17]; first compound 0.8 µM,0.992
same,relative viability,[17]; first compound 2.53 µM,0.973
same,relative viability,[17]; first compound 8 µM,1.09
same,relative viability,[18]; first compound 0.08 µM,0.537
same,relative viability,[18]; first compound 0.253 µM,0.547
same,relative viability,[18]; first compound 0.8 µM,0.516
same,relative viability,[18]; first compound 2.53 µM,0.483
same,relative viability,[18]; first compound 8 µM,0.389
same,relative viability,[19]; first compound 0.08 µM,1.04
same,relative viability,[19]; first compound 0.253 µM,1.23
same,relative viability,[19]; first compound 0.8 µM,0.909
same,relative viability,[19]; first compound 2.53 µM,1.02
same,relative viability,[19]; first compound 8 µM,0.552
same,relative viability,[20]; first compound 0.08 µM,1.06
same,relative viability,[20]; first compound 0.253 µM,1.08
same,relative viability,[20]; first compound 0.8 µM,1.14
same,relative viability,[20]; first compound 2.53 µM,0.95
same,relative viability,[20]; first compound 8 µM,1.03
same,relative viability,[21]; first compound 0.08 µM,0.67
same,relative viability,[21]; first compound 0.253 µM,0.728
same,relative viability,[21]; first compound 0.8 µM,0.687
same,relative viability,[21]; first compound 2.53 µM,0.581
same,relative viability,[21]; first compound 8 µM,0.673
same,relative viability,[22]; first compound 0.08 µM,0.657
same,relative viability,[22]; first compound 0.253 µM,0.675
same,relative viability,[22]; first compound 0.8 µM,0.698
same,relative viability,[22]; first compound 2.53 µM,0.61
same,relative viability,[22]; first compound 8 µM,0.66
